From patent US7645882B2, “Inhibitor of protein modification products formation” (priority 2003, dated 2010)

How the values were obtained:
SHR/NDmcr-cp rat = assay: Renal protecting effect in SHR/NDmcr-cp rat; format: in vivo; conditions: 33 weeks aged, 20 weeks administration; TM-2002 50 mg/kg in diet, olmesartane 3 mg/kg oral
Source text: Renal protecting effect was observed using SHR/NDmcr-cp (Disease Model Cooperative Research Association) rat, which had been known their high blood pressure, hyperglycemia, hyperlipemia, obesity and hyperinsulinemia and renal function disorder while aging.
SHR/NDmcr-cp rat and Wistar Kyoto rat (Disease Model Cooperative Research Association) of 9 weeks aged were conformed for 3 weeks and measured their body weight and blood collection before administration. One group contain five rats (body weight 440 g±32 g). After division, excipient (negative control), positive control compound and test compound were administered 20 weeks. Carboxymethylcellulose (carboxymethyl cellulose Na/ Wako) solution as excipient and olmesartane, which is one of the angiotensin II receptor antagonist and has renal protective effect, as positive control compound were used to examine the effect of TM-2002 (test compound). The dosage of olmesartane was 3 mg per 1 kg of body weight and that of TM-2002 was 50 mg per 1 kg of body weight. Olmesartane was prepared by suspending or solving the designed amount in 1.0 ml of 0.5% carboxymethylcellulose solution or purified water, and TM-2002 was prepared by mixing the designed amount in 30 g of diet (for one day). Since the increase of body weight of test animals was remarkable, the amount of positive control compound and test compound was modified depending on the result of body weight measuring (every week). […] While administration period, body weight was measured every week, and blood collection, urine collection and blood pressure measuring were done every 2 weeks before 4 weeks aged and every 4 weeks after 5 weeks aged. Blood collection was carried out after warming to 38° C. by warming plate from caudal vein for 800 μl (heparin treatment: the amount of heparin was determined by ratio 15 μl to 1 ml of blood). […] The volume of daily urine was measured when urine was collected. The blood pressure was determined with by the tail-cuff method blood pressure measure (Softron). […]

[1] = test system: rat carotid balloon injury model; assay: Vascular endothelial thickening inhibiting effect in rat carotid balloon injury model; format: in vivo; conditions: oral 50 mg/kg twice daily (hydrochloride), 15 days, aminoguanidine hydrochloride 45 mg/kg twice daily as positive control
Protocol: vascular endothelial thickening inhibiting effect in rat carotid balloon injury model, which is post-vasodilatory operation restenosis model.
TM-2002 was suspended in sodium carboxymethylcellulose aqueous solution (CMC) (0.5%) using mortar and prepared to the concentration of 12.5 mg/mL using measuring cylinder.
Aminoguanidine hydrochloride (Sigma) was used as positive control, suspended in CMC aqueous solution (0.5%) using mortar in the same manner, and prepare to the concentration of 11.25 mg/mL using measuring cylinder. Each preparation was formed when use it to administer orally coercively using disposable injection and oral sonde with suspending. […]
While testing, the alive and the condition of wound were observed everyday. The body weight was measured once a day from the day before injury to 14 day after balloon injury. The dose of each individuals were calculated by their body weight.
The blood samples were obtained from abdomen vena cava under anesthesia by ether on 15 day after balloon injury. […] The area of intravascular lumen, the area surrounded by internal elastic lamina and the area surrounded by external elastic lamina was calculated using image analyzer (VM-30, Olympus photology).
For each sections (3 region), the area of neointimal, media and neointimal/media rate of blood vessel was calculated from the measured area. […]

SMILES: Cc1ncc2c(c1O)C(c1c(C)nn(-c3ccccc3)c1O)OC2 (stereo not shown) [compound 68, 1-(5-hydroxy-3-methyl-1-phenyl-1H-pyrazol-4-yl)-6-methyl-1,3-dihydro-furo[3,4-c]pyridin-7-ol]
- blood pressure (SHR/NDmcr-cp rat): without blood pressure lowering
- renal function / renal protective effect (SHR/NDmcr-cp rat): excellent renal protective effect
- urinary protein (SHR/NDmcr-cp rat): urinary protein is suppressed remarkably
- intimal thickening inhibiting effect [1]: intimal thickening inhibiting effect equal to aminoguanidine group
